These results are taken from US12527798B2, “Preservation of immune response during chemotherapy regimens” (Pharmacosmos Holding A/S, priority 2016, dated 2026).

Where two headings read alike, the source gives them in different places.

Experiment [1] deals with MC38 tumor cells. It is filed as in vivo. To be noted: dosing schedule not given, anti-PD-1 combination study. How it is done: For all xenograft studies, nine-week old female C57BL/6 mice (C57BL/6NCrl) were implanted with MC38 tumor cells and treatment was initiated when mean tumor volume was approximately 100 mm^3. Compound I was administered in combination with oxaliplatin and […] according to the Induction and Maintenance (IM) dosing schedule, which is shown in FIG. 3.
Briefly, Compound I (100 mg/kg) and oxaliplatin (10 mg/kg) were administered intraperitoneally (IP) once weekly for three doses and mouse […] (5 mg/kg, IP) was given twice weekly starting on Day 1 and continuing through the end of study.
(§1) Single, two, and three drug combinations were tested and Compound I was administered 30 minutes prior to chemotherapy treatment. Complete response (CR) and partial response (PR) were calculated using standard Charles River Laboratories (CRL; RTP, NC) criteria. Body weight (BW) and health were monitored, and tumor volume was measured twice weekly. The individual tumor volume endpoint was 1000 mm^3 or Day 100, whichever came first.

For a further experiment, the system named is intra-tumor immune cells. Nature of the experiment: EdU incorporation in intra-tumor immune cell populations of MC38 tumor-bearing mice (Example 10). The format is in vivo, C57BL/6 mice. To be noted: one dose 100 mg/kg IP; EdU 6 to 48 hours after treatment; FIGS. 21, 22. The method, then:
MC38 tumor-bearing C57BL/6 mice were treated with one dose of Compound I (100 mg/kg, IP), followed by in vivo EdU (5-ethynyl-2′-deoxyuridine, 200 μg/mouse, IP) incorporation 6 to 48 hours after treatment with Compound I. Eighteen hours after EdU dosing, mice were euthanized and tumors were harvested for analysis. Tumors were processed to single-cell suspensions, followed by depletion of dead cells and enrichment of CD45+ immune cells prior to antibody labeling for various lymphoid and myeloid immune cell populations defined as follows: CD8+ T cells (CD4−CD8+), CD4+ T cells (CD4+CD8−Foxp3−), Tregs (CD4+CD8−Foxp3+), NK (CD3−NK1.1+), monocytic myeloid derived suppressor cells (mMDSCs, CD11b+Ly6C+Ly6G−), granulocytic myeloid derived suppressor cells (gMDSCs, CD11b+Ly6C+Ly6G+), and macrophages (CD11b+Ly6C−Ly6G−). After cell surface staining, cell samples were fixed and EdU incorporation was detected by click chemistry followed by flow cytometric analysis. Inhibition of proliferation is represented as the (% EdU+ in Compound I treated)/(% EdU+ in vehicle treated)×100 for each cell population at each time point.

Another experiment concerns CD8+ T cells. The experiment in a line: CFSE proliferation of CD8+ T cells in the presence of Tregs treated with Compound I (Example 9). The format is cell-based, C57BL/6 mice. The note with it: splenocytes stimulated with anti-CD3/CD28 72 hours; FIG. 20. The method, then:
(§2) CD4+CD25+ Tregs were purified from spleens of C57BL/6 mice using a two-step magnetic bead separation process-depletion of all non-CD4+ cells followed by positive selection of CD25+ cells. Purified Tregs were cultured ex-vivo with […] antibodies and IL-2 for 48 hours with either 0, 250, or 1000 nM trilaciclib. […] The percentage of phospho-Rb+ Tregs was defined as phospho-Rb+ cells in the CD4+Foxp3+ population. […] CFSE-labeled splenocytes were stimulated ex-vivo with anti-CD3/CD28 antibodies for 72 hours in the presence or absence of Tregs treated with Compound I. Cells were stained with anti-CD4 and CD8 antibodies, and T cell proliferation was assessed by the dilution of the mean fluorescence intensity of CFSE in CD4-CD8+ T cells by flow cytometric analysis. Percent proliferation was calculated as (mean CFSE intensity of CD8+ T cells stimulated in the absence of Tregs)/(mean CFSE intensity of CD8+ T cells stimulated in the presence of Tregs)×100, the results of which are shown in FIG. 19 and FIG. 20.

In another experiment the test system is CT26 tumor. Nature of the experiment: CT26 tumor growth in mice (Example 7). The format is in vivo. To be noted: Compound I added to an anti-PD-L1/oxaliplatin regimen. The method, then: CT26 bearing mice are treated with Compound I (IP, 100 mg/kg, weekly×3), anti-PD-L1 (IP, 5 mg/animal, biweekly to end), and/or oxaliplatin (IP, 10 mg/kg, weekly×3) and tumors were evaluated.

Experiment [2] concerns MC38 tumor cells. The format is in vivo. To be noted: dosing schedule not given, anti-PD-L1 combination study. The method, then:
Anti-tumor activity of Compound I in combination with PD-L1 (clone 10F.9G2) and oxaliplatin was evaluated in the MC38 syngeneic murine colon carcinoma model. For all xenograft studies, nine-week old female C57BL/6 mice (C57BL/6NCrl) were implanted with MC38 tumor cells and treatment was initiated when mean tumor volume was approximately 100 mm^3.
Briefly, Compound I (100 mg/kg) and oxaliplatin (10 mg/kg) were administered intraperitoneally (IP) once weekly for three doses and the checkpoint inhibitor administration was varied as depending on the dosing schedule. In the Induction (I) dosing schedule, mouse anti-PD-L1 (100 μg/animal, IP) was given twice weekly for two weeks starting on Day 1 and ending on Day 15. In the Maintenance (M) dosing schedule, mouse anti-PD-L1 (100 μg/animal, IP) was given twice weekly starting on Day 15 and continuing through the end of study. In the Induction+Maintenance (IM) dosing schedule, mouse anti-PD-L1 (100 μg/animal, IP) was given twice weekly starting on Day 1 and continuing through the end of study.
as §1, with “first. The arms of the study included the following: • 1) vehicle • 2) Compound I+anti-PD-L1 (clone 10F.9G2), IM dosing schedule • 3) Compound I+Oxaliplatin+anti-PD-L1 (clone 10F.9G2), IM dosing schedule • 4) Oxaliplatin+anti-mouse PD-L1 (clone 10F.9G2), M dosing schedule • 5) Compound I+oxaliplatin+anti-mouse PD-L1 (clone 10F.9G2), M dosing schedule • 6) oxaliplatin+anti-mouse PD-L1 (clone 10F.9G2), I dosing schedule • 7) Compound I+oxaliplatin+anti-mouse PD-L1 (clone 10F.9G2), I dosing schedule” for “first.”

For the next experiment, the system named is CDK4/6-Rb pathway. Nature of the experiment: Phospho-Rb in purified Tregs cultured ex vivo, flow cytometry (Example 9). It is filed as cell-based, C57BL/6 mice. To be noted: 0, 250 or 1000 nM, 48 hours; FIG. 19. The method, then:
as §2
On the technique in general: Flow cytometry measures light scatter and fluorescence of single cells or particles in a stream.

With `CN1CCN(c2ccc(Nc3ncc4cc5n(c4n3)C3(CCCCC3)CNC5=O)nc2)CC1` [Compound I, trilaciclib], in the experiment with MC38 tumor cells [1], the “Complete Response %” value was determined as 10%, the “Objective Response Rate %” value is 20%, the “Overall Survival (OS)” value stood at 22 and the “Partial Response %” value is 10%. Further, in the experiment with intra-tumor immune cells, the “proliferation of intra-tumor lymphoid and myeloid immune cell populations (EdU)” value was “transient and reversible inhibition of cell proliferation”. In addition, the “proliferation of CD8+ T cells in the presence of Tregs treated with Compound I” value in the experiment on CD8+ T cells was “dose-dependent increase in proliferation”. The anti-tumor efficacy result with CT26 tumor is given as “consistently enhanced anti-tumor efficacy”. In the experiment with MC38 tumor cells [2], the “Complete Response %” value is given as 0%, the “Objective Response Rate %” value is 0%, the “Overall Survival (OS)” value is on record as 19 and the “Partial Response %” value turned out to be 0%. Also, the “phospho-Rb level in Tregs” value with CDK4/6-Rb pathway is “dose-dependent down-regulation”.
